The source made the active and inactive calls.
Key:
[1] = target: G-protein coupled receptor 35 (Homo sapiens, UniProt Q9HC97); assay: inhibition of zaprinast-stimulated GPR35 beta-arrestin translocation – imaging, U2OS, beta-arrestin-GFP, zaprinast agonist, primary screen (AID 2058); assay type: functional;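 also: antagonist potency meaning inhibition of agonist-induced arrestin redistribution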
[2] = Trypanosoma cruzi growth suppression in host cells – NIH3T3 host cells, beta-gal luminescence, confirmation (AID 2044); assay type: functional, cell-based;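 also: intracellular parasites grown in NIH/3T3 mouse fibroblasts as host cells; luminescent beta-galactosidase reporter signal from transgenic T. cruzi replicating inside host cells; inhibitors lower the luminescence signal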
[3] = alpha-synuclein stem-loop luciferase translation blockers – H4 neuroglioma cells, luminescence, confirmation (AID 1988); assay type: functional, cell-based
[4] = target: T1, Ubiquitin-conjugating enzyme E2 N (Homo sapiens, UniProt P61088); assay type: functional;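 also: Dose-response confirmation in a TR-FRET assay detecting UBC13-driven polyubiquitin chain formation, inhibition measured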
T1 sequence (P61088 whole entry): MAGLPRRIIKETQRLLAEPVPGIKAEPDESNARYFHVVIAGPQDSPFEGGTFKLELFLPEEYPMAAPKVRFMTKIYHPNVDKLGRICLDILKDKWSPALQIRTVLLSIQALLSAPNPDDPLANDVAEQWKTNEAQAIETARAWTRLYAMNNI

[5] = luciferase reporter signal suppression in cells – H4 neuroglioma cells, luminescence, dose response (AID 1990); assay type: functional, cell-based
[6] = NIH3T3 cell viability loss – ATP luminescence, mouse fibroblasts, counter-screen, dose response (AID 2010); assay type: functional, cell-based;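 also: cells exposed to compound for about 90 hours before reading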
[7] = Luminescence Cell-Based Dose Response HTS to Identify Inhibitors of 5'UTR Stem-Loop Driven Prion Protein mRNA Translation in H4 Neuroglioblastoma Cells. [Related pubchem assays: 1827 (Project Summary), 1813 (Primary HTS)]; assay type: functional
Vero [8] = assay: cells; assay type: functional; conditions: Chlorocebus sabaeus
Perilipin-1/ABHD5 = Perilipin-1/ABHD5 (Homo sapiens, UniProt O60240+Q8WTS1); assay: Luminescence-based biochemical high throughput dose response assay for inhibitors of the interaction of the lipase co-activator protein, abhydrolase domain containing 5 (ABHD5) with perilipin-1 (PLIN1) (2K validation set). [Related pubchem assays (depositor defined):AID493027, AID493057]
Sequence of Perilipin-1/ABHD5 (Q8WTS1 whole entry, the tested form may be a part): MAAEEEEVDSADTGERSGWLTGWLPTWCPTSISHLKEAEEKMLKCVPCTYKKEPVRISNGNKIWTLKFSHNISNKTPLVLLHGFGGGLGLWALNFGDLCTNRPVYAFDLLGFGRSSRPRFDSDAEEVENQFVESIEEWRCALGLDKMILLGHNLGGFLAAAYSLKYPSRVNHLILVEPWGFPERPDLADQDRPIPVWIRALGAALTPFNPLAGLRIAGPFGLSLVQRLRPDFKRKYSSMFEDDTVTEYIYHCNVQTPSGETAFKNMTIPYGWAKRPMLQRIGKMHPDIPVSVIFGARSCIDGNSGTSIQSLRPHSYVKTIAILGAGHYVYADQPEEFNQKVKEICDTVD
Sequence of Perilipin-1/ABHD5 (O60240 whole entry, the tested form may be a part): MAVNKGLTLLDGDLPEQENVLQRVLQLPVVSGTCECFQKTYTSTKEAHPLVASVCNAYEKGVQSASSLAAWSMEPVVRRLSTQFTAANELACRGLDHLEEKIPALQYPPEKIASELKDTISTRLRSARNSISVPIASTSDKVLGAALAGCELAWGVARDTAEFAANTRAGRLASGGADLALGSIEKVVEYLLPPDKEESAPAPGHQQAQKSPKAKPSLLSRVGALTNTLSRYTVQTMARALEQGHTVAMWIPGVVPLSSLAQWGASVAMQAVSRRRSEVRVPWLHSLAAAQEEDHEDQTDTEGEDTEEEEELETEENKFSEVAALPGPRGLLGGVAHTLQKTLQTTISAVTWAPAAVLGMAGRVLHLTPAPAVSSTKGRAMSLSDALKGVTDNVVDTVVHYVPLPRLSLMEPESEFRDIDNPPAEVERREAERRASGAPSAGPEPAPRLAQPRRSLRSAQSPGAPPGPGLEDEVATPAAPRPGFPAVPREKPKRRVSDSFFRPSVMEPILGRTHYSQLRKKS

[9] = target: 1-acylglycerol-3-phosphate O-acyltransferase ABHD5/Perilipin-5 (Homo sapiens, UniProt Q00G26+Q8WTS1); assay: Luminescence-based biochemical high throughput dose response assay for inhibitors of the interaction of the lipase co-activator protein, abhydrolase domain containing 5 (ABHD5) with perilipin-5 (MLDP; PLIN5) (2K validation set). [Related pubchem assays (depositor defined):AID493035, AID493241]
[10] = viability loss in HeLa cells – cytotoxicity control for MgcRacGAP inhibitor project, dose response (AID 624300); assay type: functional
Vero [11] = assay: cells; assay type: functional, cell-based; conditions: Chlorocebus sabaeus
Trypsin = Trypsin (Sus scrofa, UniProt P00761); assay: trypsin protease activity blockade – biochemical, quenched peptide fluorescence, cherry-pick, selectivity assay for Rce1 protease inhibitor project, dose response (AID 488789)
Sequence of Trypsin (P00761 whole entry): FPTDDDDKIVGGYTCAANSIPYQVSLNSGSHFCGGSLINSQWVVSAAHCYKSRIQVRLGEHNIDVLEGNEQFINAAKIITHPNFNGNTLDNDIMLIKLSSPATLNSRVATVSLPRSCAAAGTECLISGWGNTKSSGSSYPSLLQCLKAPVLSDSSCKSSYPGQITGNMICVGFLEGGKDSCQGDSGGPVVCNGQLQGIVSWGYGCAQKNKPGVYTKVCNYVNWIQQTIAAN

[12] = target: T2, Short transient receptor potential channel 4 (Mus musculus, UniProt Q9QUQ5); assay: potentiation of DAMGO-evoked TRPC4 calcium signal – cell-based, HEK293 TRPC4/mu-opioid, Fluo-4 calcium, EC20 DAMGO, dose response (AID 434941); assay type: functional
T2 sequence (Q9QUQ5 whole entry): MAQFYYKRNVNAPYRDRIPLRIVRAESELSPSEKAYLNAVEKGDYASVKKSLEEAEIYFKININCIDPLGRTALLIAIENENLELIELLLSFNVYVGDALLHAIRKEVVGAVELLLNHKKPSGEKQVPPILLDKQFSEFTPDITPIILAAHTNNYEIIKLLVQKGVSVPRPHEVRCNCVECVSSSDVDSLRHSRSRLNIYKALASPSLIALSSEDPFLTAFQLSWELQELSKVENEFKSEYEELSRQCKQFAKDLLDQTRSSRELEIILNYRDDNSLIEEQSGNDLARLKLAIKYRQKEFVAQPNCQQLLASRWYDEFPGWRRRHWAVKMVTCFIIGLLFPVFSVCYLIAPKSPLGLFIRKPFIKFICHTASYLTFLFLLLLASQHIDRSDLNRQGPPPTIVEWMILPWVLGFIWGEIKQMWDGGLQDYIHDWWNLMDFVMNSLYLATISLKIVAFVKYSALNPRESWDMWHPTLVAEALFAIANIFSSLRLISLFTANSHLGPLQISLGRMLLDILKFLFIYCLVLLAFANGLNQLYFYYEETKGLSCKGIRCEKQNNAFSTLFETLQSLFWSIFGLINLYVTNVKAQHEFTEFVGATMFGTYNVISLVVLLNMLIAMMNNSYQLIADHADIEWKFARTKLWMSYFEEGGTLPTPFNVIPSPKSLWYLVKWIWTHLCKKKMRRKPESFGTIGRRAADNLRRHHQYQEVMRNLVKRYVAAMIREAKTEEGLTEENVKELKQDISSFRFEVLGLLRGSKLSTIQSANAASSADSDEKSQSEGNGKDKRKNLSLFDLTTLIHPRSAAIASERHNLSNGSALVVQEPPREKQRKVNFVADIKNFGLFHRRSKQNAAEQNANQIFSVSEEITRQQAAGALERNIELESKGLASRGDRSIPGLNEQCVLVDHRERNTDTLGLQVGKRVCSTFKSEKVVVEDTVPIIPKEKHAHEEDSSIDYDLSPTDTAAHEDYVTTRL

[13] = target: G-protein coupled receptor 55 (Homo sapiens, UniProt Q9Y2T6); assay: selective activators of receptor GPR55 – imaging, U2OS cells, beta-arrestin-GFP redistribution, primary screen (AID 1961); assay type: functional
Sequence of G-protein coupled receptor 55 (Q9Y2T6 whole entry): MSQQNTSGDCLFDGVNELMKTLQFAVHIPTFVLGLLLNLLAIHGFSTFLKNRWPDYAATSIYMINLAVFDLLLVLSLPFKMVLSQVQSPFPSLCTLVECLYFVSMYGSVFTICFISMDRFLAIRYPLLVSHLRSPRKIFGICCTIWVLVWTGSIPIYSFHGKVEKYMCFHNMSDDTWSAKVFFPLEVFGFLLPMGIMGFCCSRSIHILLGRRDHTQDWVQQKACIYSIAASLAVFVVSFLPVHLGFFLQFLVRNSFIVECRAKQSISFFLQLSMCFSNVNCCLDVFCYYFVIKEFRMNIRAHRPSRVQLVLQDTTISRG

Mu-type opioid receptor = Mu-type opioid receptor (Homo sapiens, UniProt P35372); assay: SAR Analysis of Antagonists of the MOR Receptor using an Image-Based Assay - Set 3. [Related pubchem assays (depositor defined):AID1777, AID1785, AID1786, AID1966, AID2133, AID2136, AID2284, AID2285, AID2420]; assay type: functional
[14] = target: T3, Kappa-type opioid receptor (Homo sapiens, UniProt P41145); assay: SAR analysis of small molecule antagonists of the kappa opioid receptor via a luminescent beta-arrestin assay - Set 3. [Related pubchem assays (depositor defined):AID1777, AID1778, AID1785, AID1786, AID1966, AID2133, AID2136, AID2285, AID2495]; assay type: functional
T3 sequence (P41145 whole entry): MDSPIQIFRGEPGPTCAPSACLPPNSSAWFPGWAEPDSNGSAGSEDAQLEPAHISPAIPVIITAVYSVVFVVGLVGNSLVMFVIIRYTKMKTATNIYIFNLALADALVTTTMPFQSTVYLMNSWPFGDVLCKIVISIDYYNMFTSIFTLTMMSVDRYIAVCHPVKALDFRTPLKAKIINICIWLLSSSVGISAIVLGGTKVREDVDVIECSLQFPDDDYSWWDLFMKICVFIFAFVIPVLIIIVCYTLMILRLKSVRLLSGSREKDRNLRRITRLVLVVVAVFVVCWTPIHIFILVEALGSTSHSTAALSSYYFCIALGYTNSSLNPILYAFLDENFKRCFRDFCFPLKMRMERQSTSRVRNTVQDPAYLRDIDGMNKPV

[15] = target: Delta-type opioid receptor (Homo sapiens, UniProt P41143); assay: SAR Analysis of Antagonists of the DOR Receptor using an Image-Based Assay - Set 3. [Related pubchem assays (depositor defined):AID1777, AID1785]; assay type: functional;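 also: U2OS cells expressing DOR1 and beta-arrestin GFP stimulated with 100 nM SNC80; imaging of GFP-tagged beta-arrestin moving into spots after receptor activation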
[16] = target: T3, Kappa-type opioid receptor; assay: SAR analysis of Antagonists of the Kappa Opioid Receptor (KOR) using an Image-Based Assay - Set 3. [Related pubchem assays (depositor defined):AID1777, AID1785]; assay type: functional
[17] = RanGTP/importin-beta interaction disruptors – biochemical, plate reader, dry powder, dose response (AID 493048); design: species or system Homo sapiens
Beta-galactosidase = Beta-galactosidase (Escherichia coli, UniProt Q8VNN2); assay: detection-enzyme interference by beta-gal modulators – biochemical, E. coli enzyme, set 3, artefact control for CCR6 antagonist project, dose response (AID 504712); assay type: functional
Sequence of Beta-galactosidase (Q8VNN2 whole entry): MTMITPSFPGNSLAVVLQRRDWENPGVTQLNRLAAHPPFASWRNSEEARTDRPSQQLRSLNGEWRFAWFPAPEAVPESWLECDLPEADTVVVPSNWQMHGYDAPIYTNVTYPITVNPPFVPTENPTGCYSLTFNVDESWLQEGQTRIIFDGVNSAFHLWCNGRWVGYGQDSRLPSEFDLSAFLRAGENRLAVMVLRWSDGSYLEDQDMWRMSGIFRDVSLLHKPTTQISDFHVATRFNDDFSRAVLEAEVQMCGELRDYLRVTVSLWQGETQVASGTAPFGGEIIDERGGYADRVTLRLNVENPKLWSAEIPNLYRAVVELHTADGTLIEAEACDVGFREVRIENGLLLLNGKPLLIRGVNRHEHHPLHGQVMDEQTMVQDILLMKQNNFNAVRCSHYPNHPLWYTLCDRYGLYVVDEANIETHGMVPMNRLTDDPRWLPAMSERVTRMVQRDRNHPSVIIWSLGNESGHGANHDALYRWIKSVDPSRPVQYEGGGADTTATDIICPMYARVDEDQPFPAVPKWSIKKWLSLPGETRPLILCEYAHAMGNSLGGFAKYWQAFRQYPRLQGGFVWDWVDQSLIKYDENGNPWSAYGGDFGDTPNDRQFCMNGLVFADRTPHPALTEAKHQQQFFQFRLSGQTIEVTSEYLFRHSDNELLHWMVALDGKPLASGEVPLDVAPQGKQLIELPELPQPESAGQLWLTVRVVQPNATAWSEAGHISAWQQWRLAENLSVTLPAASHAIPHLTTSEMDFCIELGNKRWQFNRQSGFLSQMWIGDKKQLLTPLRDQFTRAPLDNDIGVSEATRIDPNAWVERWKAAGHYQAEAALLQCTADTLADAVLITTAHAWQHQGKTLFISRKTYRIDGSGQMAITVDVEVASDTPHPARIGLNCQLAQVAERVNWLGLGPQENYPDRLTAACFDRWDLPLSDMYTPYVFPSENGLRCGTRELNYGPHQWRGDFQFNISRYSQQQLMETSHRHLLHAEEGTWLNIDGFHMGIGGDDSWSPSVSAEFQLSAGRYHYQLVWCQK

NS3 = NS3 (Hepatitis C virus, UniProt A3EZJ3); assay: PubChem AID 2173; design: species or system Hepacivirus hominis
Sequence of NS3 (A3EZJ3 whole entry): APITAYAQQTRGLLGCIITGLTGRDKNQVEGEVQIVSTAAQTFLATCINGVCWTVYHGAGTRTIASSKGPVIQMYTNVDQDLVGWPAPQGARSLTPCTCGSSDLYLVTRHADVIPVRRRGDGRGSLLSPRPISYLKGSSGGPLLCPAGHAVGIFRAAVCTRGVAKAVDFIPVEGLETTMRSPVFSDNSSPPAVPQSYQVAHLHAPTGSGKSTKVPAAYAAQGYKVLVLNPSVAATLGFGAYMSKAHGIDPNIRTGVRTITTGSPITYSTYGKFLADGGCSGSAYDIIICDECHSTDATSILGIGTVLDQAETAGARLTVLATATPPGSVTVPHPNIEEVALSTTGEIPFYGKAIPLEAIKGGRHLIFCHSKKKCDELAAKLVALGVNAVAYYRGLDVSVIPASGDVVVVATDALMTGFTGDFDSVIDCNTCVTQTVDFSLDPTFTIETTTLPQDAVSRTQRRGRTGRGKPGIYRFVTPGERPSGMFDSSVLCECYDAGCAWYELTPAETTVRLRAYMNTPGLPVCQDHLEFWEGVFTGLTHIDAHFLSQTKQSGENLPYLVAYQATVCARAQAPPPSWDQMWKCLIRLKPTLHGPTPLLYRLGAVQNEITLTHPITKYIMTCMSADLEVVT

[18] = target: C-C chemokine receptor type 6 (Homo sapiens, UniProt P51684); assay: antagonism of CCR6 beta-arrestin recruitment – cell-based, luminescent beta-arrestin readout, dose response (AID 504728); assay type: functional
Sequence of C-C chemokine receptor type 6 (P51684 whole entry): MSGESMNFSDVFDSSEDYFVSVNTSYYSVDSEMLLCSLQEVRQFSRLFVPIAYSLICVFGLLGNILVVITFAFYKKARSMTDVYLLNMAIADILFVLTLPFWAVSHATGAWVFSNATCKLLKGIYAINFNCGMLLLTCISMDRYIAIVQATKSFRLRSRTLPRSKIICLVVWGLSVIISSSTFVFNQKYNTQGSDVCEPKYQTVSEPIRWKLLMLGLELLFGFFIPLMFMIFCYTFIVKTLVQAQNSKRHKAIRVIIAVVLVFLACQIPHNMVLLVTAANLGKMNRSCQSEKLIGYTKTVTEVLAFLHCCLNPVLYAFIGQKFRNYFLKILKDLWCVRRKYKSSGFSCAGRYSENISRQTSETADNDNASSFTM

Neutrophil collagenase = Neutrophil collagenase (Homo sapiens, UniProt P22894); assay: potency against MMP13, MMP2, MMP3, MMP14 – biochemical, probe development, late stage results, selectivity assay for MMP13 inhibitor project, late-stage follow-up, panel member MMP-8 [IC50 Assay] (AID 2067)
Sequence of Neutrophil collagenase (P22894 whole entry): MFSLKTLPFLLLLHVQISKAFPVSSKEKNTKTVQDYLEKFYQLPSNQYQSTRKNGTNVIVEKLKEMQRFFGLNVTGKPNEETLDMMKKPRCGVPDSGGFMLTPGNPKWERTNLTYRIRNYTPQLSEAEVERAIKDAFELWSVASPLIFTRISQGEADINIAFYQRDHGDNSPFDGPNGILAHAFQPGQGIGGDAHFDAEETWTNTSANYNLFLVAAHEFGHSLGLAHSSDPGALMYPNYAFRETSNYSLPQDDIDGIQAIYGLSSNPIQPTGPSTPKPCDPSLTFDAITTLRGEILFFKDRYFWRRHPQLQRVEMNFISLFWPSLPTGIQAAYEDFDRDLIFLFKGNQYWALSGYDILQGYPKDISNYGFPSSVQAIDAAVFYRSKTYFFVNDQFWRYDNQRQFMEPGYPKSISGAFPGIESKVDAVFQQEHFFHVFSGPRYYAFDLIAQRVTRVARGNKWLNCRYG

[19] = target: Scavenger receptor class B member 1 (Mus musculus, UniProt Q61009); assay: mouse SR-BI DiI-HDL uptake blockers – ldlA[mSR-BI] cells, fluorescence, cherry pick, dose response (AID 493194); assay type: functional, cell-based;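 also: cellular uptake of fluorescent DiI-labeled HDL measured as cell fluorescence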
Vero [20] = assay: host cell viability loss, Vero E6 – synthesized analogs, cytotoxicity control for West Nile virus antiviral project, SAR follow-up (AID 2244); assay type: functional; conditions: Chlorocebus sabaeus
Vero [21] = assay: antiviral protection of cells from WNV – synthesized analogs, SAR follow-up (AID 2238); assay type: functional, cell-based; conditions: Chlorocebus sabaeus
Vero [22] = assay: Vero cell viability after compound exposure – synthesized analogs, set II, cytotoxicity control for West Nile virus antiviral project, SAR follow-up (AID 2402); assay type: functional; conditions: Chlorocebus sabaeus
[23] = A Cell Based Assay for the Identification of Probe candidate Compounds with Anti- Venezuelan Equine Encephalitis virus. [Related pubchem assays: 2409, 2419, 1621, 2238, 2405, 2024, 2065, 2402, 2414, 1635, 1650, 2244 ]; assay type: functional
Vero [24] = assay: Vero 76 cell viability after compound exposure – Vero 76 cells, synthesized analogs, cytotoxicity control for West Nile virus antiviral project, SAR follow-up (AID 2414); assay type: functional; conditions: Chlorocebus sabaeus
Vero [25] = assay: mammalian cell viability reduction – secondary assay, cytotoxicity control for West Nile virus antiviral project, dose response (AID 1650); assay type: functional; conditions: Chlorocebus sabaeus
Vero [26] = assay: inhibition of WNV-induced cytopathic effect – cell-based, CPE readout (AID 1621); assay type: functional; conditions: Chlorocebus sabaeus
[27] = target: Dual specificity protein phosphatase 3 (Homo sapiens, UniProt P51452); assay: SAR VHR1 Fluorescent Assay for In Vitro dose response studies Set 2. [Related pubchem assays (depositor defined):AID1654, AID1661, AID1878]; assay type: functional
[28] = target: Alkaline phosphatase, placental type (Homo sapiens, UniProt P05187); assay: human placental alkaline phosphatase inhibition – biochemical, luminescence, confirmation (AID 1512); assay type: functional
Sequence of Alkaline phosphatase, placental type (P05187 whole entry): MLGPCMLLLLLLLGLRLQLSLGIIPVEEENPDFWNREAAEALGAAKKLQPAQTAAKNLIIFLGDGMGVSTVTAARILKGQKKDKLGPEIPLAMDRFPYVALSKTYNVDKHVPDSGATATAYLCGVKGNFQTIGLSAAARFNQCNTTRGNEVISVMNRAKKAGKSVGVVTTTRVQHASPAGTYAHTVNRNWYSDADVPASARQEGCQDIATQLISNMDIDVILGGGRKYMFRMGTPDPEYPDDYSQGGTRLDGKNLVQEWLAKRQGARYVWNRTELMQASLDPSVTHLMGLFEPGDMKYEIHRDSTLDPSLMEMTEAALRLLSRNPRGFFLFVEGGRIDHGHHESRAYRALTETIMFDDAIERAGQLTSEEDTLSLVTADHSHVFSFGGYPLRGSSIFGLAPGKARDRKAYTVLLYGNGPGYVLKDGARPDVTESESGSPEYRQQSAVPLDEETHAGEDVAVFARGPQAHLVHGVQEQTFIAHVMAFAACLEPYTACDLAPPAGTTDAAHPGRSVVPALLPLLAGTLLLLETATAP

[29] = target: T4, Tyrosine-protein phosphatase non-receptor type 7 (Homo sapiens, UniProt P35236); assay: SAR analysis of chemical inhibitors of HePTP using a Fluorescent assay - Set 2. [Related pubchem assays (depositor defined):AID1059, AID1077, AID1661, AID2085, AID521]; assay type: functional
T4 sequence (P35236 whole entry): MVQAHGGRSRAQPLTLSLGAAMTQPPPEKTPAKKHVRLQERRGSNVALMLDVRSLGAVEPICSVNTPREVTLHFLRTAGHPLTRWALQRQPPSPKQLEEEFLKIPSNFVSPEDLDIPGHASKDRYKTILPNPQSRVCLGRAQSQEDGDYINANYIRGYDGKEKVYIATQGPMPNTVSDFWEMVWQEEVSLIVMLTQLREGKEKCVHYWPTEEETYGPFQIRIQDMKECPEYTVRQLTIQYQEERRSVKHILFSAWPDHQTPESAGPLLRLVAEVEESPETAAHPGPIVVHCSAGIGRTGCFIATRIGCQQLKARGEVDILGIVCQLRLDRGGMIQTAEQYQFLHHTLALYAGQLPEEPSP

CCN(CC)CCCNc1ccc(-c2nnc(-c3ccc(OCC(C)C)cc3)o2)cn1
EC50 (cells): 0.394 µM (active) | IC50 [1]: 1.96 µM (active) | EC50 [2]: < 0.1 µM (active) | EC50 [3]: > 30 µM (not active) | IC50 [4]: > 20 µM (inactive) | EC50 [5]: > 120 µM (not active) | EC50 [6]: 4.75 µM (active) | EC50 [7]: 13.5 µM (active)

COC(=O)C1=C(C)N(Cc2ccco2)C(=O)/C1=C\c1ccc([N+](=O)[O-])cc1
CC50 (Vero [8]): 17.6 µM (active) | IC50 (Perilipin-1/ABHD5): 2.07 µM (active) | IC50 [9]: 2.27 µM (active) | CC50 [10]: 62.9 µM (active) | IC50 (Vero [11]): > 25 µM (active)

COCc1c(Br)c(C)nc(O)c1C#N
AC50 (Trypsin): 72.8 µM (active)

O=C(NCc1ccccc1)C1=C[C@H](c2ccc(C(F)(F)F)cc2)C[C@H](OCc2ccc(CO)cc2)O1
EC50 [12]: 5.96 µM (active)

CC(C)C[C@@H](CSc1ccc(Br)cc1)N1CCN(CCc2ccccc2)CCC1=O
EC50 [13]: 7.59 µM (active)

O=C(Cn1c(=O)c2cccn2c2ccccc21)NCCCN1CCN(Cc2ccccc2)CC1
IC50 (Mu-type opioid receptor): > 32 µM (inactive) | IC50 [14]: > 20 µM (inactive) | IC50 [15]: > 32 µM (inactive) | IC50 [16]: > 32 µM (inactive)

COCCNC(=O)/C(C#N)=C/c1cn(CC(=O)NCc2ccco2)c2ccccc12
AC50 [17]: 174 µM (active)

Cc1ccc(C(CCN(Cc2ccccc2)C(=O)c2ccco2)c2ccco2)cc1 (stereo unspecified)
IC50 (Beta-galactosidase): > 66.6 µM (inactive) | IC50 (NS3): 8.82 µM (active) | IC50 [18]: > 66.6 µM (inactive)

COC(=O)c1ccc(CSc2nc3c(c(=O)[nH]2)CCC3)cc1
IC50 (Neutrophil collagenase): > 39.8 µM (inactive)

Cc1cccc(N2CCN(C(=O)CN3C(=O)NC4(CCCCCC4)C3=O)CC2)c1C
AC50 [19]: 47.4 µM (active)

CC1CCN(CCCNC(=O)c2cc3c(s2)-c2ccccc2OC3)CC1
CC50 (Vero [20]): 26.2 µM (active) | IC50 (Vero [21]): > 40 µM (active) | CC50 (Vero [22]): 19.5 µM (active) | IC50 [23]: 18.2 µM (active) | CC50 (Vero [24]): > 66.6 µM (active) | CC50 (Vero [25]): > 100 µM (active) | IC50 (Vero [26]): 25.1 µM (active)

Cc1ccc(C)c(NC(S)=NNC(=O)c2ccc(Br)o2)c1
IC50 [27]: > 100 µM (inactive) | IC50 [28]: > 100 µM (inactive) | IC50 [29]: > 100 µM (inactive)
